Results taken from patent publication US20090325862A1, “Histone Deacetylase Inhibitors for the Treatment of Neurodegeneration” (priority 2006, published 2009).
Like-named read-outs stand apart in the source and are kept apart here.

Columns and labels:
[1] = target: HDAC4 (Homo sapiens, UniProt P56524); assay: cell-free, isoform selective HDAC enzyme assay, HDAC4; format: biochemical; conditions: HDAC Class IIa; read-out: IC50 Inhibition, HDAC4
[2] = target: T1, HDAC6 (Homo sapiens, UniProt Q9UBN7); assay: cell-free, isoform selective HDAC enzyme assay, HDAC6; format: biochemical
T1 sequence (Q9UBN7 1-1215): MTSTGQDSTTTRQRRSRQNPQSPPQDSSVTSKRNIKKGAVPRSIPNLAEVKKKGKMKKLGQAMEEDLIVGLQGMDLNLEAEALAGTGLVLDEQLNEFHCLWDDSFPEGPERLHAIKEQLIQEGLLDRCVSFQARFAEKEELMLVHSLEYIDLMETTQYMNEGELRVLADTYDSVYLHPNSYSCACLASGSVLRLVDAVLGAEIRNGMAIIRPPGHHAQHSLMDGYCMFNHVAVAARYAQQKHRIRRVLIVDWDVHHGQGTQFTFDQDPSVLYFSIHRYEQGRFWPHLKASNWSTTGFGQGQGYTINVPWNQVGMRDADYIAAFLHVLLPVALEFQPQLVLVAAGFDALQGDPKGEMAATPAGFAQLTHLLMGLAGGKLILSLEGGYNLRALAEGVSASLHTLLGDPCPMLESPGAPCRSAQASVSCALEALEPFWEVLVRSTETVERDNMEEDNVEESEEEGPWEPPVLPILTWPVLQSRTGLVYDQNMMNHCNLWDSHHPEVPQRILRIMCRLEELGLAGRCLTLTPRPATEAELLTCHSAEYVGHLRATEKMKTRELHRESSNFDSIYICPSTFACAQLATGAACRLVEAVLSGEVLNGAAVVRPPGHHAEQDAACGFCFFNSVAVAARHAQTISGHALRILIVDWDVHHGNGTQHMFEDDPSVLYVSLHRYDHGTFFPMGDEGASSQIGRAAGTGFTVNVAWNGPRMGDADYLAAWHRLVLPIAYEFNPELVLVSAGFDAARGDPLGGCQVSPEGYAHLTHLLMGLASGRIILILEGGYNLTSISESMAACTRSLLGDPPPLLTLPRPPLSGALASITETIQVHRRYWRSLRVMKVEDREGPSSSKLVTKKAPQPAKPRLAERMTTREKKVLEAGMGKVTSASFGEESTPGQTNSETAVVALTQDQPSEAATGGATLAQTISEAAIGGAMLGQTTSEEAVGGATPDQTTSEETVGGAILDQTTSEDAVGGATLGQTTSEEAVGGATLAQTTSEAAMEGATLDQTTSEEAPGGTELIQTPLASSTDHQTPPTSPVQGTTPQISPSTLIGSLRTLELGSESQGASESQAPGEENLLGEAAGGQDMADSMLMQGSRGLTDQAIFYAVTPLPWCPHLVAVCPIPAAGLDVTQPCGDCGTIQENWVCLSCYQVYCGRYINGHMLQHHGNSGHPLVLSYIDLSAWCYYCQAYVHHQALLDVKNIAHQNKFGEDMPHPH

[3] = target: T2, recombinant human HDAC3 enzyme (HDAC3(DAD) enzyme complex) (Homo sapiens, UniProt O15379); assay: HDAC3 assay (Fluor-de-Lys fluorescence); format: biochemical; conditions: HDAC Class I; read-out: IC50 Inhibition, HDAC3
T2 construct: made in house; host or cells: mammalian cells
T2 sequence (O15379 whole entry): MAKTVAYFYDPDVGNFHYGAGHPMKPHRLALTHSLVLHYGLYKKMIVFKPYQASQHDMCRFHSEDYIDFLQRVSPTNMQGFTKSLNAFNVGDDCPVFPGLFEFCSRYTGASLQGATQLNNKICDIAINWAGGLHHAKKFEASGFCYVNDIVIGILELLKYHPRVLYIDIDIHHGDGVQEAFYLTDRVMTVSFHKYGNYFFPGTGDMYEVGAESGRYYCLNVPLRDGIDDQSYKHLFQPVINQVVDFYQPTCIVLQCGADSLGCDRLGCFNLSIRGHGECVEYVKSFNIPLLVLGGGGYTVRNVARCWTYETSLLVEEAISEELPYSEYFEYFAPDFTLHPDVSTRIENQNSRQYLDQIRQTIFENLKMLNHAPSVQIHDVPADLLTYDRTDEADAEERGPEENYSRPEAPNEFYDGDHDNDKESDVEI
T2 sequence (Q9Y618 389-480 partner limits assumed): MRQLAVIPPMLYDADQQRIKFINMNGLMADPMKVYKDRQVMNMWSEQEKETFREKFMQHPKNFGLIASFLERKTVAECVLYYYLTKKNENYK
Protocol: (§1) The final concentration in the assay is 20 μM.
(§2) The final concentration in the assay is 1-2 nM.

[4] = target: T3, SIRT1 (Homo sapiens, UniProt Q96EB6); assay: cell-free, isoform selective HDAC enzyme assay, SIRT1; format: biochemical; conditions: HDAC Class III; read-out: IC50 Inhibition, SIRT1
T3 sequence (Q96EB6 1-747): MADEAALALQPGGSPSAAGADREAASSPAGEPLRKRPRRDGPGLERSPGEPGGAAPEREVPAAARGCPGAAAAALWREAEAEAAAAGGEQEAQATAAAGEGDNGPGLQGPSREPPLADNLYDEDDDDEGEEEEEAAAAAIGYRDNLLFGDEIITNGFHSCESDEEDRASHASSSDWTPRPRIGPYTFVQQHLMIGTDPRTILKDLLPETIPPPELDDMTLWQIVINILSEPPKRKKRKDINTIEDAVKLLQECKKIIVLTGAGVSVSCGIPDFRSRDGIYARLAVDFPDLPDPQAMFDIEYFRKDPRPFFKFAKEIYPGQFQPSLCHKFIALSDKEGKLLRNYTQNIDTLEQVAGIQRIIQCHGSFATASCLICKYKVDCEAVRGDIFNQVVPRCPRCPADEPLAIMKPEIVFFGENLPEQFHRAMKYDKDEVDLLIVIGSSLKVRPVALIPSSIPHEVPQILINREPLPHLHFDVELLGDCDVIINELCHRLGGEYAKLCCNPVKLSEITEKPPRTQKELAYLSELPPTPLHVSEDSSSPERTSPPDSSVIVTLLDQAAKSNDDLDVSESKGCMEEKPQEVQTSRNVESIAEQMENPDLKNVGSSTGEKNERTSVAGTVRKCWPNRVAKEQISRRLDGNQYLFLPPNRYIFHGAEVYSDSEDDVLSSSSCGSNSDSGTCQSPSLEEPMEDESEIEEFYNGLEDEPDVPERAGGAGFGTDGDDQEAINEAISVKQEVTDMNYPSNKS
Protocol: The following pharmaceutically active compounds, all of which are taught in the prior art, were assessed for the inhibition of various HDAC subtypes the preceding cell-free, isoform selective HDAC enzyme assays: […]

[5] = target: T4, recombinant human HDAC1 enzyme (Homo sapiens, UniProt Q13547); assay: HDAC1 assay (Fluor-de-Lys fluorescence); format: biochemical; conditions: HDAC Class I; read-out: IC50 Inhibition, HDAC1
T4 construct: made in house; host or cells: mammalian cells
T4 sequence (Q13547 whole entry): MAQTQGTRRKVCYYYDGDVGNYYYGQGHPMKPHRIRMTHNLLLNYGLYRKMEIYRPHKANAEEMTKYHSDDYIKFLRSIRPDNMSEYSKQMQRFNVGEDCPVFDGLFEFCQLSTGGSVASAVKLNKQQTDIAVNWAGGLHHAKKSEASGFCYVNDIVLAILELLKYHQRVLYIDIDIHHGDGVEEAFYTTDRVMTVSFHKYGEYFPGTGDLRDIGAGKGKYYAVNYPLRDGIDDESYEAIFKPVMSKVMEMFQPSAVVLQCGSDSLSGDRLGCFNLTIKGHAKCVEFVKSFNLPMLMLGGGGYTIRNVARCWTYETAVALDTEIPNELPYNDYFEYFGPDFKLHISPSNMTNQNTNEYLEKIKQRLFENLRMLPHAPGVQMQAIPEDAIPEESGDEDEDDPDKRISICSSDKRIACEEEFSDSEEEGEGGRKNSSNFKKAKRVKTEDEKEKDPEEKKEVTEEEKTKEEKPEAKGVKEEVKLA
Protocol: as §1
The HDAC1 enzyme is diluted in assay buffer prior to each use from a fresh aliquot of enzyme.
as §2

[6] = target: T5, human HDAC8 enzyme (Homo sapiens, UniProt Q9BY41); assay: HDAC8 assay (Fluor-de-Lys-HDAC8 fluorescence); format: biochemical
T5 construct: full length (starting from amino acid 1 to 377+ linker IEGRGS+6 His); made in house; host or cells: E. coli BL21 codon plus
T5 sequence (Q9BY41 1-377): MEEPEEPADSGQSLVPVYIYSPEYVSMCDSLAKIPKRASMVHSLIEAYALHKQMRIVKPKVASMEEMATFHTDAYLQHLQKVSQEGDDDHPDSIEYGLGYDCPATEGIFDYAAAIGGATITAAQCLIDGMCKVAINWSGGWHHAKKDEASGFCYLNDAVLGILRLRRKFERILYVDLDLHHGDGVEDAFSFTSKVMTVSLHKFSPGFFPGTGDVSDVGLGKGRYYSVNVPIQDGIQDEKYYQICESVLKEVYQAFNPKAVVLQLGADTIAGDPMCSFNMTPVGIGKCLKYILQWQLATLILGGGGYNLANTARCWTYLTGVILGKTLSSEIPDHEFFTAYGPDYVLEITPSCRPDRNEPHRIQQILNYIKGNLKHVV
Protocol: The HDAC8 assay is used to measure inhibitory activity of compounds against the human HDAC8 enzyme. The assay may be performed in 96 well or 384 well microtiter plates by pre-incubating serial dilutions of compounds with a fixed concentration of HDAC8 enzyme and then adding a diacetylated peptide-containing substrate/developer that fluoresces upon deacetylation. The deacetylase reaction is performed at 37° C. for 60 min and stopped by addition of the developer solution.
Reagents of the HDAC Fluorescent Activity Assay are purchased from BioMol Research Laboratories (Plymouth Meeting, Pa.), and include the Fluor-de-Lys™-HDAC8 Substrate/DeveloperII System. The reagents include the fluorescent substrate as a 5 mM stock solution, the and the DeveloperII Concentrate.
TSA is provided as a 10 mM stock solution in 100% DMSO.
The final concentration in the assay is 70 μM.
Test compounds are prepared as a 10×5% DMSO solution in distilled water. The final DMSO concentration in the reaction is 0.5%.
The experiment is performed in a 96-well microplate (Matrix Screenmates white), 50 ul volume, according to the following steps:
1) Add 5 ul of DMSO/compound solution
2) Add 40 ul of HDAC8 enzyme in assay buffer
4) Start the reaction by adding 5 ul of the 1 mM Substrate Solution
5) Incubate 1 h at 37° C. […]
8) Measure the fluorescence at Ex.360 nM and Em.460 nM […]

[7] = system: acetylated histones in the brain; conditions: see WO2003083067; cited from earlier work

Sequence of HDAC4 (P56524 whole entry, species assumed, canonical isoform): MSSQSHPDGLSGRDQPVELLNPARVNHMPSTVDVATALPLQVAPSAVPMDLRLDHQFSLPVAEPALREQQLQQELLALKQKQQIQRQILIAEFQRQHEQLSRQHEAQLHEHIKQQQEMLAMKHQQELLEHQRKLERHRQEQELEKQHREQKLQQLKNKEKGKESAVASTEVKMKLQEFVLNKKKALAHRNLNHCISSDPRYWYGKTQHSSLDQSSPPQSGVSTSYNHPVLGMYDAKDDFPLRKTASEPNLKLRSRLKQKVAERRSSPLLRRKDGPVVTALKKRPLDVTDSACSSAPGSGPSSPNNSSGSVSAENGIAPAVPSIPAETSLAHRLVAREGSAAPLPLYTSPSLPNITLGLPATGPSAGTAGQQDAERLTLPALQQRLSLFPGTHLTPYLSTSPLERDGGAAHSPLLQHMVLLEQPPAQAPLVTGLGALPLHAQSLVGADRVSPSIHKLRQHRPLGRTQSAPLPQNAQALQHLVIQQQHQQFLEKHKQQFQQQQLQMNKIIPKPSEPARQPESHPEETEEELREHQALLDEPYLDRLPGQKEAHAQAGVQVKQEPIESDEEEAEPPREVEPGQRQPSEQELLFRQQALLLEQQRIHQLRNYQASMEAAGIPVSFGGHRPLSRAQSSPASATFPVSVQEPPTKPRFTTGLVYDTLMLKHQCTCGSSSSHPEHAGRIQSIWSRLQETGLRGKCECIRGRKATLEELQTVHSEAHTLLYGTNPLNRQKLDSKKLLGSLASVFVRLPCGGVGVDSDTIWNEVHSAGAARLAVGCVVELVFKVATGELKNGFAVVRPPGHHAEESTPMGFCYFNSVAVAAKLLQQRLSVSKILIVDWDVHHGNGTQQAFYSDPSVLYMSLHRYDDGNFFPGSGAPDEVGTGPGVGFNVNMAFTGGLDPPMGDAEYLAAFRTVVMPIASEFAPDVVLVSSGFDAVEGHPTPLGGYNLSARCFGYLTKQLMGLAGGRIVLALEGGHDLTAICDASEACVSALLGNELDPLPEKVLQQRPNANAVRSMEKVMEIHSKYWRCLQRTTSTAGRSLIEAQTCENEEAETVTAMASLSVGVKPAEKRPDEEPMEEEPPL

IC50 [1] [µM]	IC50 ([2]; HDAC Class IIb, read-out: IC50 Inhibition, HDAC6) [µM]	IC50 [3] [µM]	IC50 [4] [µM]	IC50 [5] [µM]	potency at HDAC 8 relative to HDAC1 and HDAC3 ([6]; HDAC 8 potency similar to HDAC1 and HDAC3) [fold]	IC50 ([6]; HDAC Class I, read-out: IC50 Inhibition, HDAC8) [µM]	IC50 [2] [µM]	Compound	accumulation of acetylated histones in the brain [7]	crossing of the blood-brain barrier [7]
> 50	> 50	36	> 50	10	≤ 5	31	–	CCCCCC[C@@H](CCC)C(=O)O [Arundic acid, (2R)-2-propyloctanoic acid]	–	–
–	–	–	–	–	–	–	–	O=C(CCCCCCC(=O)Nc1ccccc1)NO [SAHA, suberoylanilide hydroxamic acid]	cause accumulation of acetylated histones in the brain	cross the blood-brain barrier
> 25	–	–	–	–	–	–	> 5000	CCCC(CCC)C(=O)O [Valproic acid, 2-propylpentanoic acid]	–	–
